Earlier results, collected in patent publication US5674533A, “Pharmaceutical composition for the controlled release of moguisteine in a liquid suspension” (Recordati, S.A., Chemical And Pharmaceutical Company, priority 1994, dated 1997).

How the values were obtained:
[1] = in humans
[2] = test system: rapidly adapting irritant receptors (RARs); details: peripheral site of action
[3] = in vivo
[4] = for antitussive activity of enantiomers: R(+) vs S(-)
[5] = not given; remark: listed apart in the source

Q: For `CCOC(=O)CC(=O)N1CCSC1COc1ccccc1OC` (racemic) [moguisteine, (R,S)-2-[(2-methoxyphenoxy)methyl-3-ethoxycarbonyl-1-acetyl]-1,3-thiazolidine], which half-life after administration [1] is on record?
A: less than one hour

Q: What about the “interaction with RARs” value [2] of the same compound?
A: interacts with the so-called "rapidly adapting irritant receptors" (RARs)

Q: What about the addiction [3] of the same compound?
A: causes no addiction

Q: What about the “tolerability in high doses relative to codeine or dextromethorphan” value [3] of the same compound?
A: better tolerated in high doses than codeine or dextromethorphan

Q: And the “action via opioid receptors” value (opioid receptors)?
A: does not act via opioid receptors

Q: And the “solubility in aqueous fluids” value?
A: relatively insoluble in aqueous fluids

Q: And the “antitussive potency relative to codeine, dextromethorphan and zipripol” value ([4]; in vivo)?
A: as potent as codeine, dextromethorphan and zipripol

Q: And the “antitussive potency relative to (D,L)-dropropizine” value ([4]; vs (D,L)-dropropizine)?
A: 3-4 times more potent

Q: Which “antitussive activity of enantiomers” value [4] does the source give for `CCOC(=O)CC(=O)N1CCSC1COc1ccccc1OC` (single isomer, unassigned) [S(-) enantiomer] here?
A: equivalent antitussive activity

Q: Which results are given for `COc1ccccc1OCC1SCCN1C(=O)CC(=O)O` (racemic) [active metabolite, (R,S)-2-[(methoxyphenoxy)methyl]-3-carboxyacetyl]-1,3 thiazolidine acid]?
A: presence in biological fluids in measurable quantities ([5]; after oral or intravenous administration of moguisteine): only its active metabolite; rate of absorption relative to moguisteine ([5]; oral): five times slower than moguisteine

Q: For `COc1ccc2c3c1O[C@H]1[C@@H](O)C=C[C@H]4[C@@H](C2)N(C)CC[C@@]341` [Codeine], which addiction [3] is on record?
A: potentially causing addiction

Q: For `CCOC(=O)CC(=O)N1CCSC1COc1ccccc1OC` (single isomer, unassigned) [R(+) enantiomer], which “antitussive activity of enantiomers” value [4] is on record?
A: equivalent antitussive activity
